Results as given in patent EP0429333B1, “Process for producing oxazopyrroloquinolines, novel oxazopyrroloquinolines, and use of oxazopyrroloquinolines” (priority 1989, dated 1991).

Legend:
kidney = assay: Toxicity to kidney determined by blood examination; type: in vivo, mice; conditions: serum
Description: After one day from administration, the mice were fasted (only water was given) and after lapse of 18 hours, blood was collected and serum was obtained therefrom. Glucose, urea nitrogen and creatinine in the serum were examined using FUJI Dry Chemslide (manufactured by Fuji Photo Film Co., Ltd.). […]
Thereafter, the mice were fasted (with giving only water) and after lapse of 18 hours, blood was collected and serum was obtained therefrom. Contents of glucose, urea nitrogen and creatinine in serum were obtained using FUJI Dry Chemslide. The results were shown by average value for eight mice.

peritoneal macrophage = assay: Test on macrophage-chemotaxis after intraperitoneal administration; type: in vivo, C3H/He mice; conditions: for (2) Chemotaxis factor was present: 50 % zymosan treated serum, no administration 68; for (2) - (1) Chemotaxied macrophage: no administration 58; for Relative activity of group (%): no administration = 100; for (1) Chemotaxis factor was not present: total number of chemotaxied macrophages at 3 points, no administration 10
Description: Thirtytwo C3H/He mice (male, 7 weeks old, average body weight 20 g, supplied by Japan Charles River Co.) were divided into 4 groups (A - D) of 8 mice each.
A solution of OPQ in physiological saline of pH 7.0 was intraperitoneally administered to each mouse 7 times, namely, on the 1st day, 2nd day, 3rd day, 4th day, 5th day, 6th day and 7th day. Dosage for one administration per one mouse was as follows: That is, 0.2 ml of the solution containing 0.2 mg/ml of OPQ for group B, 0.2 ml of the solution containing 0.5 mg/ml of OPQ for group C, 0.2 ml of the solution containing 1.0 mg/ml of OPQ for group D and 0.2 ml of physiological saline for group A.
On the 8th day from starting of the experiment, the mice were anesthetized with ether and blood was drawn from carotid artery and 5 ml of cold Hanks solution was intraperitoneally injected and exudate cells for the abdominal cavity were collected. Exudate cells for the abdominal cavity of respective groups were gathered, washed three times with cold Hanks solution and suspended in RPMI medium at 5 x 10^5 cells/ml and macrophage-chemotaxis was measured. 50 % zymosan treated serum was used as chemotaxis factor and examination was conducted at three points for each sample. Number of chemotaxied macrophage was measured on microscope and 13 visual fields was examined for one point and the results are shown in Table 2. The value in the table is a total number of chemotaxied macrophages at 3 points for each sample. Preparation of Hanks solution and RPMI medium will be explained below.
Test on macrophage-chemotaxis was conducted in the same manner as in Example 36 except that hydroxymethyl OPQ was intraperitoneally administered to each mouce 3 times of the 1st day, the 2nd day and the 3rd day in the following dosage for one administration per one mouse: 0.2 ml of hydroxymethyl OPQ solution containing 0.5 mg/ml of hydroxymethyl OPQ for group B, 0.2 ml of the solution containing 1.0 mg/ml of hydroxymethyl OPQ for group C, and 0.2 ml of the solution containing 1.5 mg/ml of hydroxymethyl OPQ for group D and exudate cells for the abdominal cavity were collected on the 4th day from starting of experiment.
(§1) In Examples 36 - 40, macrophage activity was examined according to chemotaxis of peritoneal macrophage (literature 1) and activity of T cell and that of B cell were examined according to blast transformation reaction using concanavalin A and lipopolysaccharide, (LPS) as mitogen (literature 2). Literature 1: "Function of Macrophage and Method of Measurement of Function", pages 61-65 1985), edited by Educational Committee of Japan Bacteriological Society and published from Saikon Shuppan Co.) Literature 2: "New Method of Searching of Function of Lymphocytes", pages 350-355 (1987) edited by Junichi Yada and Michio Fujiwara and published from Chugai Igaku Co.

T cell = assay: Test on T cell blast transformation reaction (2), compound added to spleen cell culture; type: cell-based, C3H/He mice; conditions: for Relative activity (%): Concanavalin A 1.0 µg/ml, without compound = 100
Description: Cells of spleen were obtained in the same manner as in Example 38 except that OPQ was not administered using five C3H/He mice (male, 7 weeks old, average body weight of 20 g, supplied by Japan Charles Liver Co.).
Then, the cells were suspended in RPMI medium at 4 x 10^6 cells/ml and the suspension was put in a flat bottom microplate of 96 holes. Culture was carried out in the air containing 5 % of CO2 at 37°C using 1.0 µg/ml of concanavalin A as mitogen with addition of 0.5 or 2.0 µg/ml of OPQ. After 63 hours from starting of culture, ^3H-thymidine was added at 2.5 µCi/ml and culture was carried out for further 9 hours. Thereafter, cells were gathered on a glass fiber filter by cell harvester and ^3H on the filter was measured by a liquid scintillation counter.
As control, same four cultures were conducted under respective conditions without adding concanavalin A or OPQ. Values in the table are average values of intake amount (cpm) of ^3H in culture under four same conditions. Activity acceleration effect of OPQ was not recognized when concanavalin A was not added, but activity acceleration effect of OPQ was recognized when concanavalin A was added.
as §1

[1] = 2 mg/kg mouse x 7 days intraperitoneally
[2] = 5 mg/kg mouse x 7 days intraperitoneally
[3] = 10 mg/kg mouse x 7 days intraperitoneally

For `O=C(O)c1cc(C(=O)O)c2c(n1)c1ncoc1c1cc(C(=O)O)[nH]c12` [OPQ, oxazopyrroloquinoline], the Creatinine (kidney; 40 mg/kg mouse intraperitoneally, Table 2, no administration 0.8) was 0.7 mg/dL, the Urea nitrogen (kidney; 40 mg/kg mouse intraperitoneally, Table 2, no administration 24) was 25 mg/dL and the Glucose (kidney; 40 mg/kg mouse intraperitoneally, Table 2, no administration 78) was 90 mg/dL. The Creatinine (kidney; 80 mg/kg mouse intraperitoneally, Table 2, no administration 0.8) was 0.8 mg/dL, the Urea nitrogen (kidney; 80 mg/kg mouse intraperitoneally, Table 2, no administration 24) was 23 mg/dL and the Glucose (kidney; 80 mg/kg mouse intraperitoneally, Table 2, no administration 78) was 86 mg/dL. The Creatinine (kidney; 150 mg/kg mouse intraperitoneally, Table 3, no administration 0.7) was 0.8 mg/dL, the Urea nitrogen (kidney; 150 mg/kg mouse intraperitoneally, Table 3, no administration 28) was 32 mg/dL and the Glucose (kidney; 150 mg/kg mouse intraperitoneally, Table 3, no administration 105) was 106 mg/dL. For the same compound, the Creatinine (kidney; 160 mg/kg mouse intraperitoneally, Table 2, no administration 0.8) was 0.7 mg/dL, the Urea nitrogen (kidney; 160 mg/kg mouse intraperitoneally, Table 2, no administration 24) was 27 mg/dL and the Glucose (kidney; 160 mg/kg mouse intraperitoneally, Table 2, no administration 78) was 90 mg/dL. It also gave a Creatinine (kidney; 200 mg/kg mouse intraperitoneally, Table 2, no administration 0.8) of 0.8 mg/dL, a Urea nitrogen (kidney; 200 mg/kg mouse intraperitoneally, Table 2, no administration 24) of 28 mg/dL and a Glucose (kidney; 200 mg/kg mouse intraperitoneally, Table 2, no administration 78) of 85 mg/dL. It also gave a Creatinine (kidney; 300 mg/kg mouse intraperitoneally, Table 3, no administration 0.7) of 0.8 mg/dL, a Urea nitrogen (kidney; 300 mg/kg mouse intraperitoneally, Table 3, no administration 28) of 29 mg/dL and a Glucose (kidney; 300 mg/kg mouse intraperitoneally, Table 3, no administration 105) of 80 mg/dL. It also gave a Creatinine (kidney; 400 mg/kg mouse intraperitoneally, Table 3, no administration 0.7) of 0.8 mg/dL, a Urea nitrogen (kidney; 400 mg/kg mouse intraperitoneally, Table 3, no administration 28) of 30 mg/dL and a Glucose (kidney; 400 mg/kg mouse intraperitoneally, Table 3, no administration 105) of 94 mg/dL. It also gave a Creatinine (kidney; 600 mg/kg mouse intraperitoneally, Table 3, no administration 0.7) of 0.8 mg/dL, a Urea nitrogen (kidney; 600 mg/kg mouse intraperitoneally, Table 3, no administration 28) of 34 mg/dL and a Glucose (kidney; 600 mg/kg mouse intraperitoneally, Table 3, no administration 105) of 74 mg/dL. The “(2) Chemotaxis factor was present” value (peritoneal macrophage; [1]) was 107, the “(2) - (1) Chemotaxied macrophage” value (peritoneal macrophage; [1]) was 96 and the “Relative activity of group (%)” value (peritoneal macrophage; [1]) was 166%. The “(1) Chemotaxis factor was not present” value (peritoneal macrophage; [1]) was 11, the “(2) Chemotaxis factor was present” value (peritoneal macrophage; [2]) was 96 and the “(2) - (1) Chemotaxied macrophage” value (peritoneal macrophage; [2]) was 87. The “Relative activity of group (%)” value (peritoneal macrophage; [2]) was 150%, the “(1) Chemotaxis factor was not present” value (peritoneal macrophage; [2]) was 9 and the “(2) Chemotaxis factor was present” value (peritoneal macrophage; [3]) was 180. The “(2) - (1) Chemotaxied macrophage” value (peritoneal macrophage; [3]) was 173, the “Relative activity of group (%)” value (peritoneal macrophage; [3]) was 298% and the “(1) Chemotaxis factor was not present” value (peritoneal macrophage; [3]) was 7. The “Relative activity (%)” value (T cell; 0.5 µg/ml added to culture) was 146%, the “intake amount (cpm) of ^3H” value (T cell; 0.5 µg/ml added to culture, concanavalin 0 µg/ml, without compound 2077) was 1946 cpm and the “intake amount (cpm) of ^3H” value (T cell; 0.5 µg/ml added to culture, concanavalin 1.0 µg/ml, without compound 89091) was 130775 cpm. For the same compound, the “Relative activity (%)” value (T cell; 2.0 µg/ml added to culture) was 130%, the “intake amount (cpm) of ^3H” value (T cell; 2.0 µg/ml added to culture, concanavalin 0 µg/ml, without compound 2077) was 2031 cpm and the “intake amount (cpm) of ^3H” value (T cell; 2.0 µg/ml added to culture, concanavalin 1.0 µg/ml, without compound 89091) was 116093 cpm.
